The NIST ThermoML archive (doi:10.1016/j.jct.2012.10.008)

Legend:
[1] = refractive index (Na D-line) (dimensionless); conditions: 298.15 K; 101.33 kPa; Liquid; Standard Abbe refractometry
[2] = Liquid; for viscosity: Falling or rolling sphere viscometry; for mass density: Vibrating tube method
[3] = xn = mol fraction of the nth substance listed; conditions: 101 kPa, Liquid, x2 = 0; for viscosity: Falling or rolling sphere viscometry; for mass density: Vibrating tube method

CCCCO [butan-1-ol]
Conditions | refractive index
[1] | 1.3972

[2]
Conditions | mass density, 293.15 K [kg/m3] | mass density, 298.15 K [kg/m3] | mass density, 303.15 K [kg/m3] | mass density, 308.15 K [kg/m3] | mass density, 313.15 K [kg/m3] | viscosity, 293.15 K [mPa·s] | viscosity, 298.15 K [mPa·s] | viscosity, 303.15 K [mPa·s] | viscosity, 308.15 K [mPa·s] | viscosity, 313.15 K [mPa·s]
101 kPa | – | 805.94 | – | – | – | – | – | – | – | –
101.33 kPa | 809.76 | 805.96 | 802.11 | 798.18 | 794.39 | 2.942 | 2.572 | 2.265 | 2.002 | 1.787

CCCCO [butan-1-ol] + CCCC[NH3+].O=[N+]([O-])[O-]
[3]
Conditions | mass density [kg/m3] | viscosity [mPa·s]
293.15 K | 809.76 | 2.942
298.15 K | 805.94 | 2.572
303.15 K | 802.11 | 2.265
308.15 K | 798.18 | 2.002
313.15 K | 794.39 | 1.787

CCO [ethanol]
Conditions | refractive index
[1] | 1.3594

[2]
Conditions | mass density, 293.15 K [kg/m3] | mass density, 298.15 K [kg/m3] | mass density, 303.15 K [kg/m3] | mass density, 308.15 K [kg/m3] | mass density, 313.15 K [kg/m3] | viscosity, 293.15 K [mPa·s] | viscosity, 298.15 K [mPa·s] | viscosity, 303.15 K [mPa·s] | viscosity, 308.15 K [mPa·s] | viscosity, 313.15 K [mPa·s]
101 kPa | – | – | – | – | – | – | – | 1.01 | 0.907 | –
101.33 kPa | 789.5 | 785.39 | 780.69 | 776.35 | 772.11 | 1.218 | 1.134 | 1.015 | 0.91 | 0.836

CCO [ethanol] + CCCC[NH3+].O=[N+]([O-])[O-]
[3]
Conditions | mass density [kg/m3] | viscosity [mPa·s]
293.15 K | 789.5 | 1.218
298.15 K | 785.39 | 1.134
303.15 K | 780.69 | 1.01
308.15 K | 776.35 | 0.907
313.15 K | 772.11 | 0.836

CO [methanol]
Conditions | refractive index
[1] | 1.3264

[2], 101.33 kPa
Conditions | mass density [kg/m3] | viscosity [mPa·s]
293.15 K | 791.23 | 0.588
298.15 K | 786.54 | 0.552
303.15 K | 781.81 | 0.516
308.15 K | 777.05 | 0.486
313.15 K | 772.25 | 0.461

CO [methanol] + CCCC[NH3+].O=[N+]([O-])[O-]
[3]
Conditions | mass density [kg/m3] | viscosity [mPa·s]
293.15 K | 791.23 | 0.588
298.15 K | 786.54 | 0.552
303.15 K | 781.81 | 0.516
308.15 K | 777.05 | 0.486
313.15 K | 772.25 | 0.461

CCCC[NH3+].O=[N+]([O-])[O-] [n-butylammonium nitrate]
Conditions | refractive index
[1] | 1.4458

[2], 101.33 kPa
Conditions | mass density [kg/m3] | viscosity [mPa·s]
293.15 K | 1104.68 | 111.35
298.15 K | 1101.52 | 89.95
303.15 K | 1098.38 | 73.04
308.15 K | 1095.26 | 60.25
313.15 K | 1092.17 | 50.12

CCCO [propan-1-ol]
Conditions | refractive index
[1] | 1.3833

[2], 101.33 kPa
Conditions | mass density [kg/m3] | viscosity [mPa·s]
293.15 K | 803.56 | 2.208
298.15 K | 799.58 | 1.975
303.15 K | 795.59 | 1.738
308.15 K | 791.48 | 1.549
313.15 K | 787.36 | 1.382

CCCO [propan-1-ol] + CCCC[NH3+].O=[N+]([O-])[O-]
[3]
Conditions | mass density [kg/m3] | viscosity [mPa·s]
293.15 K | 803.56 | 2.208
298.15 K | 799.58 | 1.975
303.15 K | 795.59 | 1.738
308.15 K | 791.48 | 1.549
313.15 K | 787.36 | 1.382
